# Measurements reported in US9820972B2, “Antiviral compounds highly effective as HCV-NS5A inhibitor” (priority 2013, dated 2017).
# Test system: GT-1a of NS5A Replicon
# Experiment: HCV double reporter gene (Renilla luciferase) replicon assay, GT-1a
# Format: cell-based, Hepatitis C virus (HCV)
# Conditions: Hepatitis C virus, GT1A, GT-1a replicon; class symbols; read-out: EC50 For GT-1a of NS5A Replicon
# Procedure: Antiviral Assay for Inhibition Activity (EC50):
# The study is completed by a new constructed double reporter genes replicon assay system, the capacity of viral replicon in infected cell is determined by detecting the reporter gene Renilla luciferase. The relationship of reporter genes, HCV RNA replicon and viral proteins is well linear. 8 gradient concentrations for 2-fold dilution, 3 wells, 3 times repetition and 1 or 2 control drugs are set to finally determine EC50 of compound.
# THF was distilled from sodium metal and benzophenone. DCM, pentane and hexane were distilled form calcium hydride. Special raw material and intermediate in the invention were ordered by contract synthesis from Zannan SciTech Co., Let in China, others reagents were purchased from Shanghai reagent company, Aldrich, Acros etc. As intermediates or products during the synthesis is not required for the reaction and other tests the next step, the synthesis is repeated until a sufficient number of times. The invention of the prepared compounds of […] (HCV NS5A) inhibitory activity test was performed by CRO service units such as WuXi AppTec etc.
row,Structure (SMILES),EC50 [nM]
1,COC(=O)N[C@H](C(=O)N1C[C@H](OC(=O)N2Cc3ccc4c(c3C2)OCO4)CC1c1ncc(-c2ccc(-c3ccc(-c4c[nH]c([C@@H]5CCCN5C(=O)[C@@H](NC(=O)OC)C(C)C)n4)cc3)cc2)[nH]1)C(C)C (stereo partly shown) [Compound 6a],0.001 to 0.999
2,COC(=O)N[C@H](C(=O)N1CCCC1c1nc(-c2ccc(-c3ccc(-c4c[nH]c([C@@H]5CCCN5C(=O)C5(NC(=O)OC)CCCCC5)n4)cc3)cc2)c[nH]1)C(C)C (stereo partly shown) [Compound 6aa],0.001 to 0.999
3,COC(=O)N[C@H](C(=O)N1CCCC1c1nc(-c2ccc(-c3ccc(-c4c[nH]c([C@@H]5CCCCN5C(=O)[C@@H](NC(=O)OC)C(C)C)n4)cc3)cc2)c[nH]1)C(C)C (stereo partly shown) [Compound 6ab],0.001 to 0.999
4,COC(=O)N[C@H](C(=O)N1C[C@@H](OC(=O)N2Cc3cc4c(cc3C2)OCO4)CC1c1nc(-c2ccc(-c3ccc(-c4c[nH]c([C@@H]5CCCCN5C(=O)[C@@H](NC(=O)OC)C(C)C)n4)cc3)cc2)c[nH]1)C(C)C (stereo partly shown) [Compound 6ac],0.001 to 0.999
5,COC(=O)N[C@H](C(=O)N1C[C@@H](OC(=O)N2Cc3ccc4c(c3C2)OCO4)CC1c1nc(-c2ccc(-c3ccc(-c4c[nH]c([C@@H]5CCCCN5C(=O)[C@@H](NC(=O)OC)C(C)C)n4)cc3)cc2)c[nH]1)C(C)C (stereo partly shown) [Compound 6ad],0.001 to 0.999
6,COC(=O)N[C@H](C(=O)N1CN(C(=O)N2Cc3ccc4c(c3C2)OCO4)CC1c1nc(-c2ccc(-c3ccc(-c4c[nH]c([C@@H]5CCCN5C(=O)[C@@H](NC(=O)OC)C(C)C)n4)cc3)cc2)c[nH]1)C(C)C (stereo partly shown) [Compound 6ae],0.001 to 0.999
7,COC(=O)N[C@H](C(=O)N1CN(C(=O)N2Cc3cc4c(cc3C2)OCO4)CC1c1nc(-c2ccc(-c3ccc(-c4c[nH]c([C@@H]5CCCN5C(=O)[C@@H](NC(=O)OC)C(C)C)n4)cc3)cc2)c[nH]1)C(C)C (stereo partly shown) [Compound 6af],0.001 to 0.999
8,COC(=O)N[C@H](C(=O)N1CCCC1c1nc(-c2ccc(-c3ccc(-c4c[nH]c([C@@H]5COCCN5C(=O)[C@@H](NC(=O)OC)C(C)C)n4)cc3)cc2)c[nH]1)C(C)C (stereo partly shown) [Compound 6ag],0.001 to 0.999
9,COC(=O)N[C@H](C(=O)N1C[C@@H](OC(=O)N2Cc3cc4c(cc3C2)OCO4)CC1c1nc(-c2ccc(-c3ccc(-c4c[nH]c([C@@H]5COCCN5C(=O)[C@@H](NC(=O)OC)C(C)C)n4)cc3)cc2)c[nH]1)C(C)C (stereo partly shown) [Compound 6ah],0.001 to 0.999
10,COC(=O)N[C@H](C(=O)N1C[C@@H](OC(=O)N2Cc3ccc4c(c3C2)OCO4)CC1c1nc(-c2ccc(-c3ccc(-c4c[nH]c([C@@H]5COCCN5C(=O)[C@@H](NC(=O)OC)C(C)C)n4)cc3)cc2)c[nH]1)C(C)C (stereo partly shown) [Compound 6ai],0.001 to 0.999
11,COC(=O)N[C@H](C(=O)N1CCCCC1c1nc(-c2ccc(-c3ccc(-c4c[nH]c([C@@H]5COCCN5C(=O)[C@@H](NC(=O)OC)C(C)C)n4)cc3)cc2)c[nH]1)C(C)C (stereo partly shown) [Compound 6aj],0.001 to 0.999
12,COC(=O)N[C@H](C(=O)N1CC(OC(=O)N2Cc3cc4c(cc3C2)OCO4)CC1c1nc(-c2ccc(-c3ccc(-c4c[nH]c([C@@H]5CC6(CC6)CN5C(=O)[C@@H](NC(=O)OC)C(C)C)n4)cc3)cc2)c[nH]1)C(C)C (stereo partly shown) [Compound 6ak],0.001 to 0.999
13,COC(=O)N[C@H](C(=O)N1CN(C(=O)N2Cc3cc4c(cc3C2)OCO4)CC1c1nc(-c2ccc(-c3ccc(-c4c[nH]c([C@@H]5CC6(CC6)CN5C(=O)[C@@H](NC(=O)OC)C(C)C)n4)cc3)cc2)c[nH]1)C(C)C (stereo partly shown) [Compound 6am],0.001 to 0.999
14,COC(=O)N[C@H](C(=O)N1CC(OC(=O)N2Cc3ccc4c(c3C2)OCO4)CC1c1nc(-c2ccc(-c3ccc(-c4c[nH]c([C@@H]5CC6(CC6)CN5C(=O)[C@@H](NC(=O)OC)C(C)C)n4)cc3)cc2)c[nH]1)C(C)C (stereo partly shown) [Compound 6an],0.001 to 0.999
15,COC(=O)N[C@H](C(=O)N1CN(C(=O)N2Cc3ccc4c(c3C2)OCO4)CC1c1nc(-c2ccc(-c3ccc(-c4c[nH]c([C@@H]5CC6(CC6)CN5C(=O)[C@@H](NC(=O)OC)C(C)C)n4)cc3)cc2)c[nH]1)C(C)C (stereo partly shown) [Compound 6ap],0.001 to 0.999
16,COC(=O)N[C@H](C(=O)N1CN(C(=O)N2Cc3ccccc3C2)CC1c1nc(-c2ccc(-c3ccc(-c4c[nH]c([C@@H]5CCCN5C(=O)[C@@H](NC(=O)OC)C(C)C)n4)cc3)cc2)c[nH]1)C(C)C (stereo partly shown) [Compound 6aq],0.001 to 0.999
17,COC(=O)N[C@H](C(=O)N1CN(C(=O)N2Cc3cccc(F)c3C2)CC1c1nc(-c2ccc(-c3ccc(-c4c[nH]c([C@@H]5CCCN5C(=O)[C@@H](NC(=O)OC)C(C)C)n4)cc3)cc2)c[nH]1)C(C)C (stereo partly shown) [Compound 6ar],0.001 to 0.999
18,COC(=O)N[C@H](C(=O)N1CN(C(=O)N2Cc3ccc(F)cc3C2)CC1c1nc(-c2ccc(-c3ccc(-c4c[nH]c([C@@H]5CCCN5C(=O)[C@@H](NC(=O)OC)C(C)C)n4)cc3)cc2)c[nH]1)C(C)C (stereo partly shown) [Compound 6as],0.001 to 0.999
19,COC(=O)N[C@H](C(=O)N1CN(C(=O)N2Cc3cccc(Cl)c3C2)CC1c1nc(-c2ccc(-c3ccc(-c4c[nH]c([C@@H]5CCCN5C(=O)[C@@H](NC(=O)OC)C(C)C)n4)cc3)cc2)c[nH]1)C(C)C (stereo partly shown) [Compound 6at],0.001 to 0.999

row,Structure (SMILES),EC50 [nM]
1,COC(=O)N[C@H](C(=O)N1CN(C(=O)N2Cc3ccc(Cl)cc3C2)CC1c1nc(-c2ccc(-c3ccc(-c4c[nH]c([C@@H]5CCCN5C(=O)[C@@H](NC(=O)OC)C(C)C)n4)cc3)cc2)c[nH]1)C(C)C (stereo partly shown) [Compound 6au],0.001 to 0.999
2,COC(=O)N[C@H](C(=O)N1CN(C(=O)N2Cc3ccc(OC)cc3C2)CC1c1nc(-c2ccc(-c3ccc(-c4c[nH]c([C@@H]5CCCN5C(=O)[C@@H](NC(=O)OC)C(C)C)n4)cc3)cc2)c[nH]1)C(C)C (stereo partly shown) [Compound 6av],0.001 to 0.999
3,COC(=O)N[C@H](C(=O)N1CN(C(=O)N2Cc3cccc(OC)c3C2)CC1c1nc(-c2ccc(-c3ccc(-c4c[nH]c([C@@H]5CCCN5C(=O)[C@@H](NC(=O)OC)C(C)C)n4)cc3)cc2)c[nH]1)C(C)C (stereo partly shown) [Compound 6aw],0.001 to 0.999
4,COC(=O)N[C@H](C(=O)N1CN(C(=O)N2Cc3cc(OC)c(OC)cc3C2)CC1c1nc(-c2ccc(-c3ccc(-c4c[nH]c([C@@H]5CCCN5C(=O)[C@@H](NC(=O)OC)C(C)C)n4)cc3)cc2)c[nH]1)C(C)C (stereo partly shown) [Compound 6ax],0.001 to 0.999
5,COC(=O)NC(C(=O)N1CCC[C@H]1c1nc(-c2ccc(-c3ccc(-c4c[nH]c(C5CN(C(=O)N6Cc7ccc8c(c7C6)OCO8)CN5C(=O)[C@@H](NC(=O)OC)C(C)C)n4)cc3)cc2)c[nH]1)c1ccccc1 (stereo partly shown) [Compound 6ay],0.001 to 0.999
6,COC(=O)N[C@H](C(=O)N1CC(OC(=O)N2Cc3cc4c(cc3C2)OCO4)CC1c1nc(-c2ccc3c(c2)Cc2cc(-c4c[nH]c([C@@H]5CCCN5C(=O)[C@@H](NC(=O)OC)C(C)C)n4)ccc2-3)c[nH]1)C(C)C (stereo partly shown) [Compound 6az],0.001 to 0.999
7,CC(C)[C@H](NC(=O)OC(C)(C)C)C(=O)N1CCC[C@H]1c1nc(-c2ccc(-c3ccc(-c4cnc([C@@H]5C[C@@H](OC(=O)N6Cc7ccc8c(c7C6)OCO8)CN5C(=O)[C@@H](NC(=O)OC(C)(C)C)C(C)C)[nH]4)cc3)cc2)c[nH]1 [Compound 6b],> 50
8,CC(C)[C@H](NC(=O)OC1CCCC1)C(=O)N1CC=CC1c1ncc(-c2ccc(-c3ccc(-c4c[nH]c([C@@H]5C=CCN5C(=O)[C@@H](NC(=O)OC5CCCC5)C(C)C)n4)cc3)cc2)[nH]1 (stereo partly shown) [Compound 6bf],> 50
9,COC(=O)N[C@H](C(=O)N1CC=CC1c1nc(-c2ccc(-c3ccc(-c4c[nH]c([C@@H]5CCCN5C(=O)C5(NC(=O)OC)CC5)n4)cc3)cc2)c[nH]1)C(C)C (stereo partly shown) [Compound 6bh],0.001 to 0.999
10,COC(=O)N[C@H](C(=O)N1CC=CC1c1nc(-c2ccc(-c3ccc(-c4c[nH]c([C@@H]5CCCN5C(=O)C5(NC(=O)OC)CCCC5)n4)cc3)cc2)c[nH]1)C(C)C (stereo partly shown) [Compound 6bi],0.001 to 0.999
11,COC(=O)N[C@H](C(=O)N1CC=CC1c1nc(-c2ccc(-c3ccc(-c4c[nH]c([C@@H]5CCCN5C(=O)C5(NC(=O)OC)CCCCC5)n4)cc3)cc2)c[nH]1)C(C)C (stereo partly shown) [Compound 6bj],0.001 to 0.999
12,COC(=O)N[C@H](C(=O)N1CC=CC1c1nc(-c2ccc(-c3ccc(-c4c[nH]c([C@@H]5CCCCN5C(=O)[C@@H](NC(=O)OC)C(C)C)n4)cc3)cc2)c[nH]1)C(C)C (stereo partly shown) [Compound 6bk],0.001 to 0.999
13,COC(=O)N[C@H](C(=O)N1CC=CC1c1nc(-c2ccc(-c3ccc(-c4c[nH]c([C@@H]5COCCN5C(=O)[C@@H](NC(=O)OC)C(C)C)n4)cc3)cc2)c[nH]1)C(C)C (stereo partly shown) [Compound 6bm],0.001 to 0.999
14,COC(=O)N[C@H](C(=O)N1CC(OC(=O)N2Cc3cc4c(cc3C2)OCO4)CC1c1nc(-c2ccc3c(c2)oc2cc(-c4c[nH]c([C@@H]5CCCN5C(=O)[C@@H](NC(=O)OC)C(C)C)n4)ccc23)c[nH]1)C(C)C (stereo partly shown) [Compound 6bn],0.001 to 0.999
15,COC(=O)N[C@H](C(=O)N1CC(OC(=O)N2Cc3cc4c(cc3C2)OCO4)CC1c1nc(-c2ccc3c(c2)C(F)(F)c2cc(-c4c[nH]c([C@@H]5CCCN5C(=O)[C@@H](NC(=O)OC)C(C)C)n4)ccc2-3)c[nH]1)C(C)C (stereo partly shown) [Compound 6bp],0.001 to 0.999
16,COC(=O)N[C@H](C(=O)N1CCCC1c1nc2cc(-c3ccc4c(c3)C(F)(F)c3cc(-c5c[nH]c([C@@H]6C=CCN6C(=O)[C@@H](NC(=O)OC)C(C)C)n5)ccc3-4)ccc2[nH]1)C(C)C (stereo partly shown) [Compound 6bq],0.001 to 0.999
17,COC(=O)N[C@H](C(=O)N1CC(OC(=O)N2Cc3cc4c(cc3C2)OCO4)CC1c1nc2cc(-c3ccc4c(c3)C(F)(F)c3cc(-c5c[nH]c([C@@H]6CCCN6C(=O)[C@@H](NC(=O)OC)C(C)C)n5)ccc3-4)ccc2[nH]1)C(C)C (stereo partly shown) [Compound 6br],0.001 to 0.999
18,COC(=O)N[C@H](C(=O)N1CCCC1c1nc2cc(-c3ccc4c(c3)C(F)(F)c3cc(-c5c[nH]c([C@@H]6CN(C(=O)N7Cc8cc9c(cc8C7)OCO9)CN6C(=O)[C@@H](NC(=O)OC)C(C)C)n5)ccc3-4)ccc2[nH]1)C(C)C (stereo partly shown) [Compound 6bs],> 50
